Laboratory results as given in patent US11753407B2, “Compounds for treating spinal muscular atrophy” (PTC Therapeutics, Inc., priority 2012, dated 2023).

Columns and labels:
[1] = test system: SMN2 minigene mRNA (SMN2-A minigene) in HEK293H cells; experiment: SMN2 minigene mRNA splicing RT-qPCR assay in cultured cells; format: cell-based, human; settings: Homo sapiens, HEK293-H; concentration increasing full length SMN2 mRNA 1.5-fold relative to vehicle-treated cells; HEK293H cells with SMN2-A minigene, 24 hours, 7-point concentration data; read-out: EC1.5x for production of full length SMN2 mRNA
Outline: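 Stable SMN2-A minigene HEK293H; cpd 7-pt 3.16-fold series, 200× in DMSO, 24 h, 37 °C, n=2. Lysates → multiplex RT-qPCR (minigene FL + GAPDH), efficiency-corrected ΔΔCt vs vehicle. EC1.5× = 1.5-fold FL mRNA gain.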

[2] = test system: Smn protein in SMA patient fibroblast cells (GM03813); experiment: Smn protein assay in cultured cells (SMN HTRF); format: cell-based, human; settings: SMA patient fibroblast cells, 48 hours; for maximum fold (Fold) increase of Smn protein: 7-point concentration data, fold relative to vehicle control; for EC1.5x for Smn protein expression: 7-point concentration curve, SMN HTRF, concentration producing 1.5 times Smn protein vs DMSO vehicle control
Outline: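 Fibroblasts, SMA patient; 5,000 cells/well; 7-pt curve, 3.16-fold serial dilution; 48 h, 37 °C, 5% CO2; RIPA lysis 1 h RT; anti-SMN d2 + kryptate overnight RT; HTRF 665/620 nm; fold vs DMSO; EC1.5×, max fold.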

SMILES	EC (1.5-fold increase) [1] [µM]	melting point	maximum fold (Fold) increase of Smn protein [2]	EC1.5x for Smn protein expression [2]
COc1ccc(-c2cc(=O)n3cc(C4=CCNCC4)c(C)cc3n2)cc1OC [Compound 389, 2-(3,4-dimethoxyphenyl)-8-methyl-7-(1,2,3,6-tetrahydropyridin-4-yl)-4H-pyrido[1,2-a]pyrimidin-4-one]	1 to 3	175 °C (dec.)	** (a fold increase between >1.2 and ≤1.35 is indicated by two stars (**))	
COc1ccc(-c2cc(=O)n3cc(C4=CCN(C5CC5)CC4)cc(C)c3n2)cc1OC [Compound 390, 7-(1-cyclopropyl-1,2,3,6-tetrahydropyridin-4-yl)-2-(3,4-dimethoxyphenyl)-9-methyl-4H-pyrido[1,2-a]pyrimidin-4-one]	0.3 to 1	180 to 189 °C	* (A maximum fold increase of ≤1.2 is indicated by one star (*))	
COc1ccc(-c2cc(=O)n3cc(C4=CCN(C)CC4)c(C)cc3n2)cc1OC [Compound 391, 2-(3,4-dimethoxyphenyl)-8-methyl-7-(1-methyl-1,2,3,6-tetrahydropyridin-4-yl)-4H-pyrido[1,2-a]pyrimidin-4-one]	1 to 3	174 to 178 °C	* (A maximum fold increase of ≤1.2 is indicated by one star (*))	
Cc1nc2ccc(-c3cc(=O)n4cc(C5=CCN(C)CC5)ccc4n3)cc2s1 [Compound 392, 2-(2-methyl-1,3-benzothiazol-6-yl)-7-(1-methyl-1,2,3,6-tetrahydropyridin-4-yl)-4H-pyrido[1,2-a]pyrimidin-4-one]	0.1 to 0.3	170 to 172 °C	*** (a fold increase between >1.35 and ≤1.5 is indicated by three stars (***))	
Cc1nc2ccc(-c3cc(=O)n4cc(C5=CCN(CCO)CC5)ccc4n3)cc2s1 [Compound 393, 7-[1-(2-hydroxyethyl)-1,2,3,6-tetrahydropyridin-4-yl]-2-(2-methyl-1,3-benzothiazol-6-yl)-4H-pyrido[1,2-a]pyrimidin-4-one]	< 0.1	178 to 180 °C	*** (a fold increase between >1.35 and ≤1.5 is indicated by three stars (***))	*** (an EC1.5× between >0.3 μM and ≤1 μM is indicated by three stars (***))
Cc1nc2ccc(-c3cc(=O)n4cc(C5=CCN(C(C)C)CC5)ccc4n3)cc2s1 [Compound 394, 2-(2-methyl-1,3-benzothiazol-6-yl)-7-[1-(propan-2-yl)-1,2,3,6-tetrahydropyridin-4-yl]-4H-pyrido[1,2-a]pyrimidin-4-one]	0.1 to 0.3	168 to 170 °C	** (a fold increase between >1.2 and ≤1.35 is indicated by two stars (**))	
Cc1nc2ccc(-c3cc(=O)n4cc(C5=CCN(C6CC6)CC5)ccc4n3)cc2s1 [Compound 395, 7-(1-cyclopropyl-1,2,3,6-tetrahydropyridin-4-yl)-2-(2-methyl-1,3-benzothiazol-6-yl)-4H-pyrido[1,2-a]pyrimidin-4-one]	0.3 to 1	158 to 160 °C	** (a fold increase between >1.2 and ≤1.35 is indicated by two stars (**))	
CCN1CC=C(c2ccc3nc(-c4ccc5nc(C)sc5c4)cc(=O)n3c2)CC1 [Compound 396, 7-(1-ethyl-1,2,3,6-tetrahydropyridin-4-yl)-2-(2-methyl-1,3-benzothiazol-6-yl)-4H-pyrido[1,2-a]pyrimidin-4-one]	0.1 to 0.3	128 to 130 °C	**** (a fold increase between >1.5 and ≤1.65 is indicated by four stars (****))	*** (an EC1.5× between >0.3 μM and ≤1 μM is indicated by three stars (***))
Cc1cn2nc(-c3cc(=O)n4cc(N5CCN(C)[C@H](C)C5)ccc4n3)cc2c(C)n1 [Compound 397, 7-[(3R)-3,4-dimethylpiperazin-1-yl]-2-(4,6-dimethylpyrazolo[1,5-a]pyrazin-2-yl)-4H-pyrido[1,2-a]pyrimidin-4-one]	< 0.1	247 to 249 °C	***** (a fold increase >1.65 is indicated by five stars (*****))	**** (an EC1.5x≤0.3 μM is indicated by four stars (****))
Cc1cn2nc(-c3cc(=O)n4cc(N5C[C@@H]6C[C@H]5CN6)ccc4n3)cc2c(C)n1 [Compound 399, 7-[(1S,4S)-2,5-diazabicyclo[2.2.1]hept-2-yl]-2-(4,6-dimethylpyrazolo[1,5-a]pyrazin-2-yl)-4H-pyrido[1,2-a]pyrimidin-4-one]	0.3 to 1	218 to 221 °C	**** (a fold increase between >1.5 and ≤1.65 is indicated by four stars (****))	*** (an EC1.5× between >0.3 μM and ≤1 μM is indicated by three stars (***))
Cc1cn2nc(-c3cc(=O)n4cc(N5C[C@@H]6C[C@H]5CN6C)ccc4n3)cc2c(C)n1 [Compound 400, 2-(4,6-dimethylpyrazolo[1,5-a]pyrazin-2-yl)-7-[(1S,4S)-5-methyl-2,5-diazabicyclo[2.2.1]hept-2-yl]-4H-pyrido[1,2-a]pyrimidin-4-one]	0.1 to 0.3	188 to 191 °C	**** (a fold increase between >1.5 and ≤1.65 is indicated by four stars (****))	*** (an EC1.5× between >0.3 μM and ≤1 μM is indicated by three stars (***))
CCN1C[C@@H]2C[C@H]1CN2c1ccc2nc(-c3cc4c(C)nc(C)cn4n3)cc(=O)n2c1 [Compound 401, 2-(4,6-dimethylpyrazolo[1,5-a]pyrazin-2-yl)-7-[(1S,4S)-5-ethyl-2,5-diazabicyclo[2.2.1]hept-2-yl]-4H-pyrido[1,2-a]pyrimidin-4-one]	0.1 to 0.3	175 to 177 °C	***** (a fold increase >1.65 is indicated by five stars (*****))	*** (an EC1.5× between >0.3 μM and ≤1 μM is indicated by three stars (***))
COc1ccc(-c2cc(=O)n3cc(C4CCNCC4)ccc3n2)cc1F [Compound 403, 2-(3-fluoro-4-methoxyphenyl)-7-(piperidin-4-yl)-4H-pyrido[1,2-a]pyrimidin-4-one]	< 0.1	122 to 125 °C	**** (a fold increase between >1.5 and ≤1.65 is indicated by four stars (****))	** (an EC1.5× between >1 μM and ≤3 μM is indicated by two stars (**))
CCN1CCC(c2ccc3nc(-c4ccc(OC)c(OC)c4)cc(=O)n3c2)CC1 [Compound 404, 2-(3,4-dimethoxyphenyl)-7-(1-ethylpiperidin-4-yl)-4H-pyrido[1,2-a]pyrimidin-4-one]	0.3 to 1	155 to 157 °C	**** (a fold increase between >1.5 and ≤1.65 is indicated by four stars (****))	** (an EC1.5× between >1 μM and ≤3 μM is indicated by two stars (**))
